Measurements reported in the supplement of paper PMC11208160.

Experiment: recombinant UMI read abundance after kanamycin selection (control-corrected) (log10(CPM+1)); higher = more efficient recombination; extreme values may be limits of the assay; sequences stand for … in AGTGCAGAGAAAATCGGCCAGTTTTCTCTGCCTGCAGTCCGCATGCCGTGGGACCCCTTGGGTTCTAACCTGTTGCCTAGATTTATGCAGCGGACTGCCTTTCTCCCAAAGTGATAAACCGG…AGGTTGGTTTCACT; site = the 11-nt donor
Procedure, shortened: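 Under IPTG (0.07 mM) plus kanamycin, or without selection, Escherichia coli carrying a UMI-tagged donor and donor-binding-loop pair library and a target plasmid for the IS621 bridge recombinase were plated in two replicates. Recombinant UMIs were PCR-amplified across the donor–target junction and sequenced. Counts were converted to CPM, averaged over replicates, scaled by control-derived factors and reported as log10(CPM+1).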
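Also: IS621 bridge recombinase in Escherichia coli cells against a fixed T5 target plasmid.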

Sequence | recombinant UMI read abundance (log10)
GAGCTCACATGGACCGGTTTTCCCGGTAATCCGTATTTGAC (site GAGCTCACTTT) | 0.00766
GAGCTCACATGGACCGGTTTTCCCGGTAATCCGTATTTGTT (site GAGCTCACTAA) | 1.53
GAGCTCACATGGACCGGTTTTCCCGGTAATCCGTATTTGTT (site GAGCTCACTAC) | 0.0125
GAGCTCACATGGACCGGTTTTCCCGGTAATCCGTATTTGTT (site GAGCTCACTAG) | 2.34
GAGCTCACATGGACCGGTTTTCCCGGTAATCCGTATTTGTT (site GAGCTCACTAT) | 1.08
GAGGATGCATGGACCGGTTTTCCCGGTAATCCGTATTTGTA (site GAGGATGCTTA) | 2.8
GAGGCTACATGGACCGGTTTTCCCGGTAATCCGTATTTGTG (site GAGGCTACTCA) | 1.4
GAGGGTACATGGACCGGTTTTCCCGGTAATCCGTATTTGGC (site GAGGGTACTGC) | 2.1
GAGGTACCATGGACCGGTTTTCCCGGTAATCCGTATTTGTA (site GAGGTACCTTA) | 0.00435
GAGGTATCATGGACCGGTTTTCCCGGTAATCCGTATTTGCT (site GAGGTATCTAG) | 2.57
GAGGTCACATGGACCGGTTTTCCCGGTAATCCGTATTTGAT (site GAGATCACTAT) | 1.36
GAGGTCACATGGACCGGTTTTCCCGGTAATCCGTATTTGAT (site GAGCTCACTAT) | 0.00889
GAGGTCACATGGACCGGTTTTCCCGGTAATCCGTATTTGAT (site GAGGTCACTAT) | 1.35
GAGGTCACATGGACCGGTTTTCCCGGTAATCCGTATTTGAT (site GAGTTCACTAT) | 0
GAGTATCCATGGACCGGTTTTCCCGGTAATCCGTATTTGCT (site GAATATCCTAG) | 0
GAGTATCCATGGACCGGTTTTCCCGGTAATCCGTATTTGCT (site GACTATCCTAG) | 0.506
GAGTATCCATGGACCGGTTTTCCCGGTAATCCGTATTTGCT (site GAGTATCCTAG) | 0.75
GAGTATCCATGGACCGGTTTTCCCGGTAATCCGTATTTGCT (site GATTATCCTAG) | 0
GAGTCCTCATGGACCGGTTTTCCCGGTAATCCGTATTTGCC (site GAGTCCTCTGG) | 0
GAGTCGACATGGACCGGTTTTCCCGGTAATCCGTATTTGGG (site AAGTCGACTCC) | 0.257
GAGTCGACATGGACCGGTTTTCCCGGTAATCCGTATTTGGG (site CAGTCGACTCC) | 0.0177
GAGTCGACATGGACCGGTTTTCCCGGTAATCCGTATTTGGG (site GAGTCGACTCC) | 0.044
GAGTCGACATGGACCGGTTTTCCCGGTAATCCGTATTTGGG (site TAGTCGACTCC) | 0.0071
GAGTGCCCATGGACCGGTTTTCCCGGTAATCCGTATTTGCC (site GAGTGCCCTGG) | 0
GAGTTTCCATGGACCGGTTTTCCCGGTAATCCGTATTTGCG (site GAGTTTCCTCG) | 0.572

Sequence | recombinant UMI read abundance (log10)
GATAATCCATGGACCGGTTTTCCCGGTAATCCGTATTTGCT (site GATAATCCTAG) | 0
GATAATCCATGGACCGGTTTTCCCGGTAATCCGTATTTGCT (site GATCATCCTAG) | 0
GATAATCCATGGACCGGTTTTCCCGGTAATCCGTATTTGCT (site GATGATCCTAG) | 0
GATAATCCATGGACCGGTTTTCCCGGTAATCCGTATTTGCT (site GATTATCCTAG) | 0
GATACGTCATGGACCGGTTTTCCCGGTAATCCGTATTTGGT (site GATACGTCTAC) | 1.36
GATAGAACATGGACCGGTTTTCCCGGTAATCCGTATTTGGC (site GATAGAACTGC) | 1.7
GATAGAACATGGACCGGTTTTCCCGGTAATCCGTATTTGGC (site GCTAGAACTGC) | 0
GATAGAACATGGACCGGTTTTCCCGGTAATCCGTATTTGGC (site GGTAGAACTGC) | 0
GATAGAACATGGACCGGTTTTCCCGGTAATCCGTATTTGGC (site GTTAGAACTGC) | 0
GATCAGACATGGACCGGTTTTCCCGGTAATCCGTATTTGAA (site GATCAGACTTT) | 0.431
GATCAGCCATGGACCGGTTTTCCCGGTAATCCGTATTTGCC (site GATCAGCCTGG) | 0.649
GATCAGCCATGGACCGGTTTTCCCGGTAATCCGTATTTGGT (site GATCAGCCTAC) | 0.00497
GATCGGACATGGACCGGTTTTCCCGGTAATCCGTATTTGAC (site GATAGGACTGT) | 0
GATCGGACATGGACCGGTTTTCCCGGTAATCCGTATTTGAC (site GATCGGACTGT) | 1.11
GATCGGACATGGACCGGTTTTCCCGGTAATCCGTATTTGAC (site GATGGGACTGT) | 0
GATCGGACATGGACCGGTTTTCCCGGTAATCCGTATTTGAC (site GATTGGACTGT) | 0
GATCTCACATGGACCGGTTTTCCCGGTAATCCGTATTTGAT (site GAACTCACTAT) | 0.831
GATCTCACATGGACCGGTTTTCCCGGTAATCCGTATTTGAT (site GACCTCACTAT) | 0.0659
GATCTCACATGGACCGGTTTTCCCGGTAATCCGTATTTGAT (site GAGCTCACTAT) | 0.00697
GATCTCACATGGACCGGTTTTCCCGGTAATCCGTATTTGAT (site GATCTCACTAT) | 0.574
GATCTTCCATGGACCGGTTTTCCCGGTAATCCGTATTTGAT (site GATCTTCCTAT) | 0.048
GATGCAACATGGACCGGTTTTCCCGGTAATCCGTATTTGAT (site GATGCAACTAT) | 0.357
GATGTAGCATGGACCGGTTTTCCCGGTAATCCGTATTTGCG (site GATGTAGCTCG) | 1.72
GATGTGTCATGGACCGGTTTTCCCGGTAATCCGTATTTGAA (site GATGTGTCTTT) | 2.22
GATGTTGCATGGACCGGTTTTCCCGGTAATCCGTATTTGCT (site GATGTTGCTAG) | 2.51

Sequence | recombinant UMI read abundance (log10)
GATTAAACATGGACCGGTTTTCCCGGTAATCCGTATTTGCG (site GATTAAACTCG) | 0.992
GATTAGACATGGACCGGTTTTCCCGGTAATCCGTATTTGAC (site GATTAGACTGT) | 2.76
GATTAGACATGGACCGGTTTTCCCGGTAATCCGTATTTGAC (site GATTCGACTGT) | 0
GATTAGACATGGACCGGTTTTCCCGGTAATCCGTATTTGAC (site GATTGGACTGT) | 0
GATTAGACATGGACCGGTTTTCCCGGTAATCCGTATTTGAC (site GATTTGACTGT) | 0
GATTATGCATGGACCGGTTTTCCCGGTAATCCGTATTTGGA (site AATTATGCTTC) | 0.871
GATTATGCATGGACCGGTTTTCCCGGTAATCCGTATTTGGA (site CATTATGCTTC) | 1.13
GATTATGCATGGACCGGTTTTCCCGGTAATCCGTATTTGGA (site GATTATGCTTC) | 0.861
GATTATGCATGGACCGGTTTTCCCGGTAATCCGTATTTGGA (site TATTATGCTTC) | 0.882
GATTCATCATGGACCGGTTTTCCCGGTAATCCGTATTTGAG (site GATTCATCTCT) | 1.31
GATTGGCCATGGACCGGTTTTCCCGGTAATCCGTATTTGCG (site GATTGGCCTCG) | 0.115
GATTGTACATGGACCGGTTTTCCCGGTAATCCGTATTTGAC (site GATTGAACTGT) | 0
GATTGTACATGGACCGGTTTTCCCGGTAATCCGTATTTGAC (site GATTGCACTGT) | 0
GATTGTACATGGACCGGTTTTCCCGGTAATCCGTATTTGAC (site GATTGGACTGT) | 0
GATTGTACATGGACCGGTTTTCCCGGTAATCCGTATTTGAC (site GATTGTACTGT) | 0.604
GATTGTCCATGGACCGGTTTTCCCGGTAATCCGTATTTGCT (site GATTATCCTAG) | 0
GATTGTCCATGGACCGGTTTTCCCGGTAATCCGTATTTGCT (site GATTCTCCTAG) | 0
GATTGTCCATGGACCGGTTTTCCCGGTAATCCGTATTTGCT (site GATTGTCCTAG) | 0
GATTGTCCATGGACCGGTTTTCCCGGTAATCCGTATTTGCT (site GATTTTCCTAG) | 0
GATTTCGCATGGACCGGTTTTCCCGGTAATCCGTATTTGTC (site GATTTCGCTGA) | 1.51
GATTTGACATGGACCGGTTTTCCCGGTAATCCGTATTTGAC (site GATTAGACTGT) | 0
GATTTGACATGGACCGGTTTTCCCGGTAATCCGTATTTGAC (site GATTCGACTGT) | 0
GATTTGACATGGACCGGTTTTCCCGGTAATCCGTATTTGAC (site GATTGGACTGT) | 0
GATTTGACATGGACCGGTTTTCCCGGTAATCCGTATTTGAC (site GATTTGACTGT) | 0.525
GCAAAAACATGGACCGGTTTTCCCGGTAATCCGTATTTGCT (site GCAAAAACTAG) | 0.226
